System: Tetranychus cinnabarinus
Test: acaricidal activity test, spraying kidney bean seedlings inoculated with mites
Assay type: in vivo
Settings: sprayed on kidney bean seedlings, living mites counted after 72 hours, 25° C.
Experimental: This test example tested the acaricidal activity of the compounds prepared above, in particular against Tetranychus cinnabarinus, and a specific test process was as follows: • (1) compounds to be tested were dissolved with acetone, and the resulting solution was diluted with a 0.1 wt % Tween 80 aqueous solution to a desired concentration (see test examples 1-A to 1-D below in detail) to prepare medicaments, with the acetone content of not more than 5 wt %; • (2) one real leaf was removed from kidney bean seedlings grown to two real leaves, and the number of mites inoculated was investigated 24 hours after inoculation of Tetranychus cinnabarinus (the number of Tetranychus cinnabarinus inoculated for each kidney bean seedling was 50-150). The whole plants of three kidney bean seedlings were separately sprayed with the medicaments prepared in the step (1) by using a hand-held sprayer (the spray amount was 0.5 mL per plant). After the treatment, the kidney bean seedlings were placed in a constant temperature observation room (25° C.) for observation, the number of living mites was investigated after 72 hours, and the lethality was calculated: Lethality (%)=(the number of mites inoculated−the number of living mites after the medicaments are sprayed)/the number of mites inoculated×100.

Structure (SMILES)	Lethality (6.25 mg/L) [%]	Lethality (25 mg/L) [%]	Lethality (100 mg/L) [%]
CS(=O)(=O)n1c(-c2cc(Cl)cc(C(F)(F)F)c2)nc2ccccc21 [Compound 1-133]	99	100	100
CCS(=O)(=O)n1c(-c2cc(C(F)(F)F)cc(C(F)(F)F)c2)nc2ccccc21 [Compound 1-47]	99	100	100
CCS(=O)(=O)n1c(-c2cc(Cl)cc(C(F)(F)F)c2)nc2ccccc21 [Compound 1-213]	99	100	100
CCS(=O)(=O)n1c(-c2cc([N+](=O)[O-])cc(C(F)(F)F)c2)nc2ccccc21 [Compound 1-235]	99	99	100
CCS(=O)(=O)n1c(-c2cc(C#N)cc(C(F)(F)F)c2)nc2ccccc21 [Compound 1-218]	98	99	100
CCS(=O)(=O)n1c(-c2cc(F)cc(C(F)(F)F)c2)nc2ccccc21 [Compound 1-174]	98	98	100
CCS(=O)(=O)n1c(-c2ccc(F)c(C(F)(F)F)c2)nc2ccccc21 [Compound 1-27]	90	100	100
CCS(=O)(=O)n1c(-c2ccc(Cl)cc2)nc2ccccc21 [KC4, reference compound]	–	57	37
CCS(=O)(=O)n1c(-c2ccc(F)cc2)nc2ccccc21 [KC5, reference compound]	–	40	66
CCS(=O)(=O)n1c(-c2cc(Cl)cc(Cl)c2)nc2ccccc21 [KC6, reference compound]	–	86	100
CCS(=O)(=O)n1c(-c2cc(Cl)cc(OC(F)(F)F)c2)nc2ccccc21 [Compound 1-239]	100	100	100
CCS(=O)(=O)n1c(-c2cc(Br)cc(C(F)(F)F)c2)nc2ccccc21 [Compound 1-214]	97	100	100
CCS(=O)(=O)n1c(-c2cc(C(F)(F)F)cc(C(F)(F)F)c2)nc2cc(F)c(F)cc21 [Compound 1-257]	98	100	100
CCCS(=O)(=O)n1c(-c2cc(C(F)(F)F)cc(C(F)(F)F)c2)nc2ccccc21 [Compound 1-254]	97	100	100
CCS(=O)(=O)n1c(-c2ccccc2Cl)nc2ccccc21 [KC3, reference compound]	–	70	88
CCCCS(=O)(=O)n1c(-c2cc(C(F)(F)F)cc(C(F)(F)F)c2)nc2ccccc21 [Compound 1-255]	91	100	100
CCS(=O)(=O)n1c(-c2ccccc2F)nc2ccccc21 [KC2, reference compound]	–	49	98
CCS(=O)(=O)n1c(-c2ccccc2)nc2ccccc21 [KC1, reference compound]	–	52	82
CCS(=O)(=O)n1c(-c2cc(Br)cc(OC(F)(F)F)c2)nc2ccccc21 [Compound 1-186]	100	100	100
CCS(=O)(=O)n1c(-c2ccc(Cl)c(C(F)(F)F)c2)nc2ccccc21 [Compound 1-28]	97	100	100
CCS(=O)(=O)n1c(-c2ccc(F)c(C(F)(F)F)c2)nc2cc(F)c(F)cc21 [Compound 1-56]	95	100	100
CCS(=O)(=O)n1c(-c2cc(C(F)(F)F)cc(C(F)(F)F)c2)nc2cc(Cl)c(Cl)cc21 [Compound 1-265]	100	100	100
CCS(=O)(=O)n1c(-c2ccc(Cl)c(C(F)(F)F)c2)nc2cc(F)c(F)cc21 [Compound 1-57]	92	100	100
